Structures can show the parent of a compound that is named as a salt. Where two headings read alike, the source gives them in different places.
Columns and labels:
[1] = Stability test of enantiomers: racemization followed by SFC chiral purity analysis; type: physicochemical
Procedure: The analysis of the chiral purity of the products to be tested was carried out by a supercritical fluid separation (SFC) technique on a Berger prep chromatograph, marketed by Thar Instruments. The mobile phase of the separation consists of a mixture of methanol added. 0.01% acetic acid and CO2 in a 20/80 ratio. The stationary phase chosen is a Chiralpak IC […] column, 250 mm by 20 mm, marketed by sigma aldrich. The injection rate is 50 ml per minute, at 40° C. under a pressure of 100 bar. The product to be analyzed is dissolved in methanol supplemented with 0.01% acetic acid, with a concentration of 1 mg/ml. 10 μl of this product is injected. The detector is a UV detector with a wavelength greater than 275 nm.
(§1) The stability tests of the enantiomers were performed by comparing the racemization and the degradation of the stored samples either at room temperature without protection against light, or under controlled temperature at 5° C. and protected from light.
(§2) The stored products are analyzed regularly (T=0, 1 h, 2 h, 3 h, 6 h, 24 h) to follow the evolution of the racemization of enantiomers.
(§3) After separation by SFC acetonitrile version 2, 1.5 mg of EV-VZWOO 1-070-005 and 2.4 mg of EV-VZWOO 1-070-006 are removed for stability testing.
(§4) Sample EV-VZWOO 1-070-005 is stored at a temperature of 5° C. under light protection conditions. Sample EV-VZWOO 1-070-006 is stored at room temperature on the bench without protection against light.

[2] = Stability test of enantiomers: degradation followed by UHPLC reverse phase purity; type: physicochemical
Procedure: The analysis of the reverse phase purity of the products to be tested was carried out by an ultra-high pressure liquid chromatography (UHPLC) reverse phase chromatography technique on a Waters UPLC2 liquid chromatograph, marketed by Waters. The mobile phase of the separation varies during the method according to the protocol of Table 1.
as §1, §2, §3, §4

[3] = test system: hematopoietic stem cells CD41:GFP accumulated in the CHT; type: in vivo; details: for invasion of CHT by CD41:GFP cells / number of cells having colonized CHT, in words: thiazide compounds test, 10 μM or 25 μM, FIG. 9; for reduction of the number of HSCs accumulated in CHT: 24 h
Text: A method for determining whether a molecule is capable of treating cancer in the pre-metastatic state has been described in international application WO 2011/007259. This method consists in isolating molecules capable of inhibiting the emergence of hematopoietic stem cells from the floor of the aorta without cell division, but by endothelial-to-hematopoietic transition. This emergence involves the loss of cell polarity of emerging cells, the loss of cellular junctions with these neighboring cells and the acquisition of migratory properties. This model is used because it mimics each stage of the epithelial-mesenchymal transition, the first stage of cancer metastasis. The endothelial-to-hematopoietic transition takes place in a region of the embryo called Aorta-Gonad-Mesonephros (AGM).
(§5) The colonization of hematopoietic tissues by hematopoietic stem cells mimics the appearance and/or progression of a metastatic cancerous tumor since it involves intravasation, extravasation, or the migration of HSCs following a gradient of SDF-1. The first colonized tissue is caudal hematopoietic tissue (CHT).
In order to evaluate the inhibition of the endothelial-to-hematopoietic transition, transgenic CD41:GFP (green fluorescent protein) embryos are used. HSCs express GFP under the control of the CD41 promoter, which allows them to be monitored in vivo under a fluorescence microscope. The read-out is the number of hematopoietic stem cells CD41:GFP accumulated in the AGM (mimicking the initiation of the metastatic process) and/or in the CHT of the zebrafish embryo (mimicking the progression of the metastatic process). The accumulation of CD41:GFP cells in CHT implies that each cell has made an endothelial-to-hematopoietic transition, intravasation, extravasation at the CHT level, has settled in a stromal niche and has proliferated.
The Tg transgenic zebrafish line (CD41:GFP) is maintained in accordance with the protocols described by the Ethical Committee for Animal Experimentation. The fish are kept at a temperature of 28° C. and their development stage is determined as before. The molecules are tested on zebrafish embryos at the 25 hpf stage. The embryos are decorticated and transferred to a 96-well plate (1 embryo/well) containing the test compounds in a final volume of 100 μl of the embryonic growth medium (60 μg salt for 1 ml H2O). […] The treated embryos are incubated for 24 hours in an incubator at 28° C.
The embryos are imaged with a plate reader after being anesthetized with 0.16% tricaine (ethyl-3-aminobenzoate). A quantification of the number of fluorescent cells (CD41:GFP) accumulated in the CHT is carried out.
Althiazide was tested on the zebrafish embryo according to the method previously described in the international application WO 2011/007259. This method consists in isolating molecules capable of inhibiting the emergence of hematopoietic stem cells from the floor of the aorta without cell division, but by endothelial-to-hematopoietic transition. This emergence involves the loss of cell polarity of emerging cells, the loss of cellular junctions with these neighboring cells and the acquisition of migratory properties. This model is used, in the context of the invention, because it mimics each of the stages of the epithelial-to-mesenchymal transition, the first stage of the cancerous metastasis. The endothelial-to-hematopoietic transition takes place in a region of the embryo called Aorto-Gonado-Mesonephros (AGM).
as §5, with “metastatic” for “metastatic cancerous”, “SDF1.” for “SDF-1.”, “(CHT). This physiological process is considered, in the context of the invention, as representative of the appearance and/or progression of a metastatic tumor. […]” for “(CHT).”

MDA-MB-231 cells = experiment: Cytotoxicity potentiation test: MTT cell viability of MDA-MB-231 cells, doxorubicin +/- althiazide; type: cell-based, human; details: Homo sapiens, MDA-MB-231, 24 h, 24 h, 1% O2
Procedure: The cell cultures are carried out on human breast cancer epithelial cell lines MDA-MB-231 (HTB-26™), resulting from metastases present in a pleural effusion of a patient with a mammary adenocarcinoma. This line is used as a triple negative cancer cell model (no expression of ER-type nuclear estrogen receptors, nuclear progesterone receptors or overexpression of the oncogene encoding HER2 protein (Human Epidermal Growth factor Receptor-2).
The cell viability is determined via the IC50 index, measured by the MTT technique (2-(4,5-dimethyl-2-thiazolyl)-3,5-diphenyl-2H-tetrazolium bromide) (Mosmann, 1983). This colorimetric test is based on the reduction of yellow tetrazolium salts into insoluble purple formazan crystals in aqueous solution. The spectrophotometric measurement of the absorbance at 570 nm is directly proportional to the number of viable cells
The cells were seeded in 96-well plates at a density of 25,000 cells per well. After 24 h of culture at 37° C., 5% CO2 and 1% O2, the medium was renewed and supplemented with increasing doses of doxorubicin+/−althiazide. Cells were incubated for 24 h at 37° C., 5% CO2 and 1% O2. The MDA-MB-231 cells were washed and then incubated for 1 hour at 37° C. with 100 μl of a 0.5 mg/ml MTT solution prepared in culture medium. The formazan crystals were dissolved in […] and the absorbance measured at 570 nm using the Tecan Sunrise spectrophotometer. The IC50 was determined using the Graphpad Prism 5.0 software. The treatments were carried out in triplicate and the manipulation was carried out 5 times.
The tests are carried out in cell culture in 96-well plates, on the cell line MDA-MB-231. The MDA-MB-231 cells are seeded in 96-well plates at a density of 10,000 cells and incubated 24 h at 37° C., 5% CO2 and 1% O2. The medium is then renewed and added with increasing concentrations of doxorubicin+/−100 μM althiazide. The cells are incubated for an additional 24 hours at 37° C., 5% CO2 and 1% O2. Treatments were made in triplicas and the experiment was repeated 5 times.
A cell viability test is then performed according to the method described in Materials and methods.
Results are normalized to the control condition (FIG. 12)

[4] = 0 h, stored at 5° C. protected from light
[5] = 1 h, stored at 5° C. protected from light
[6] = 2 h, stored at 5° C. protected from light
[7] = 3 h, stored at 5° C. protected from light
[8] = 6 h, stored at 5° C. protected from light
[9] = 24 h, stored at 5° C. protected from light
[10] = 0 h, stored at room temperature without protection against light
[11] = 1 h, stored at room temperature without protection against light
[12] = 2 h, stored at room temperature without protection against light
[13] = 3 h, stored at room temperature without protection against light
[14] = 6 h, stored at room temperature without protection against light
[15] = 24 h, stored at room temperature without protection against light
[16] = 10 μM (FIG. 3; b188 prints 10 μl), vs reference embryos treated with DMSO

C=CCSC[C@@H]1Nc2cc(Cl)c(S(N)(=O)=O)cc2S(=O)(=O)N1 [AZ(A)]
SFC AZ(A) (%) [1, 4]: 100% | SFC AZ(B) (%) [1, 4]: 0% | SFC AZ(A) (%) [1, 5]: 100% | SFC AZ(B) (%) [1, 5]: 0% | SFC AZ(A) (%) [1, 6]: 100% | SFC AZ(B) (%) [1, 6]: 0% | SFC AZ(A) (%) [1, 7]: 100% | SFC AZ(B) (%) [1, 7]: 0% | SFC AZ(A) (%) [1, 8]: 100% | SFC AZ(B) (%) [1, 8]: 0% | SFC AZ(A) (%) [1, 9]: 100% | SFC AZ(B) (%) [1, 9]: 0% | UHPLC Pureté en phase inverse [2, 4]: 99.9% | UHPLC Pureté en phase inverse [2, 9]: 94.9% | invasion of CHT by CD41:GFP cells / number of cells having colonized CHT, in words [3]: further reduce

C=CCSC[C@H]1Nc2cc(Cl)c(S(N)(=O)=O)cc2S(=O)(=O)N1 [AZ(B)]
SFC AZ(A) (%) [1, 10]: 0.6% | SFC AZ(B) (%) [1, 10]: 99.4% | SFC AZ(A) (%) [1, 11]: 1.2% | SFC AZ(B) (%) [1, 11]: 98.8% | SFC AZ(A) (%) [1, 12]: 1.2% | SFC AZ(B) (%) [1, 12]: 98.8% | SFC AZ(A) (%) [1, 13]: 1.7% | SFC AZ(B) (%) [1, 13]: 98.3% | SFC AZ(A) (%) [1, 14]: 3% | SFC AZ(B) (%) [1, 14]: 97% | SFC AZ(A) (%) [1, 15]: 9.7% | SFC AZ(B) (%) [1, 15]: 90.3% | UHPLC Pureté en phase inverse [2, 10]: 100% | UHPLC Pureté en phase inverse [2, 15]: 90.5% | invasion of CHT by CD41:GFP cells / number of cells having colonized CHT, in words [3]: further reduce

NS(=O)(=O)c1cc(C2(O)NC(=O)c3ccccc32)ccc1Cl (stereo not shown) [Chlortalidone, reference compound]
reduction of the number of HSCs accumulated in CHT [3, 16]: do not cause a decrease

NNc1nncc2ccccc12 [Hydralazine-hydrochloride, reference compound]
reduction of the number of HSCs accumulated in CHT [3, 16]: do not cause a decrease

NS(=O)(=O)c1cc2c(cc1Cl)NCNS2(=O)=O [Hydrochlorothiazide, reference compound]
reduction of the number of HSCs accumulated in CHT ([3]; 10 µM): 20%

Cc1ccccc1N1C(=O)c2cc(S(N)(=O)=O)c(Cl)cc2NC1C (stereo not shown) [Metolazone, reference compound]
reduction of the number of HSCs accumulated in CHT [3, 16]: do not cause a decrease

C[N+]1(CCCCC[N+]2(C)CCCC2)CCCC1.O=C([O-])C(O)C(O)C(=O)O.O=C([O-])C(O)C(O)C(=O)O [Pentolinium-bitartrate, reference compound]
reduction of the number of HSCs accumulated in CHT [3, 16]: do not cause a decrease

COc1cccc2c1C(=O)c1c(O)c3c(c(O)c1C2=O)C[C@@](O)(C(=O)CO)C[C@@H]3O[C@H]1C[C@H](N)[C@H](O)[C@H](C)O1 [doxorubicin, reference compound]
IC50 (MDA-MB-231 cells; doxorubicin + 100 μM althiazide): 3.32 µM | IC50 (MDA-MB-231 cells; doxorubicin alone): 6.02 µM

Source: patent publication US20230137849A1, “USE OF A COMPOUND OF THE DIURETICS CLASS FOR TREATING CANCER” (AZELEAD, priority 2017, published 2023)
